Laboratory results reported in patent publication US5001235A, “Antibiotic beta-lactams containing a pyridone carboxylic acid or acid derivative” (The Upjohn Company, priority 1989, dated 1991).
≈ marks a conversion by molar mass, not a printed value. Counter-ions that a name gives are not always drawn. Like-named read-outs stand apart in the source and are kept apart here.

Legend:
Assay in all cases: MIC by agar dilution (Mueller Hinton Agar)
Format in all cases: cell-based
[1] = tested on: Pseudomonas aeruginosa
Procedure: (§1) The compounds of this invention and their respective pharmacologically acceptable salts have antibiotic activity against a variety of gram-negative bacteria including Escherichia coli, Klebsiella pneumoniae, and Pseudomonas aeruginosa. The compounds are useful for treating bacterial infections in animals, including and most preferably humans. Compounds of the invention are tested for in vitro antimicrobial activity using standard testing procedures such as the determination of minimum inhibitory concentration (MIC) by agar dilution as described in "Methods for Dilution Antimicrobial Susceptibility Tests for Bacteria That Grow Aerobically" (M7-A) Published December 1985 by the National Committee for Clinical Laboratory Standards, 771 East Lancaster Avenue, Villanova, Pa. 19084. Briefly, MIC values are determined in unsupplemented Mueller Hinton Agar (MHA). The compounds tested are diluted serially into molten MHA at 47° C. The agar is poured into petri dishes and allowed to harden. The various bacteria used for testing are grown overnight on MHA at 35° C. and transferred to Tryptiease Soy Broth (TSB) until a turbidity of 0.5 McFarland standard is obtained. The bacteria are diluted one to 20 in TSB and inoculated on the plates (1 μl using a Steers replicator). […] The MIC test results of two typical compounds of this invention, Compound 14 which is (3S)-3-[2-(2-Amino-4-thiazolyl)-Z-(2)-carboxyisopropyloxyimino)acetamido]- 1-[(3-carboxy-4-pyridon-6-yl)-carbonylamino-1-(2-imidazolidone-3-yl)sulfonylaminocarbonyl]-2-azetidinone trisodium salt and Compound 17 which is (3S)-3-[2-(2-Amino-4-thiazolyl)-Z-(2)-(carboxyisopropyloxyamino)acetamido]-1-[(3-hydroxyaminocarbonyl-4-pyridon-6-yl)carbonylamino-1-(2-imidazolidone-3-yl)sulfonylaminocarbonyl]-2-azetidinone, are given in Table I.

[2] = tested on: Enterobacter cloacae; conditions: 20 h, 35° C., read-out: Minimum Inhibitory Concentration
Procedure: as §1

[3] = tested on: Serratia marcescens; conditions: Culture Number 6888, MHA, 35° C., 20 hours, read-out: Minimum Inhibitory Concentration
Procedure: as §1

[4] = tested on: Proteus vulgaris; conditions: Culture Number 9679, MHA, 35° C., 20 hours, read-out: Minimum Inhibitory Concentration
Procedure: as §1

[5] = tested on: Streptococcus pneumoniae; conditions: Culture Number 41, MHA, 35° C., 20 hours, read-out: Minimum Inhibitory Concentration
Procedure: as §1

[6] = tested on: Citrobacter freundli; conditions: Culture Number 3507, MHA, 35° C., 20 hours, read-out: Minimum Inhibitory Concentration
Procedure: as §1

[7] = tested on: Klebsiella oxytoca; conditions: 20 h, 35° C., read-out: Minimum Inhibitory Concentration
Procedure: as §1

[8] = tested on: Streptococcus pyogenes; conditions: Culture Number 152, MHA, 35° C., 20 hours, read-out: Minimum Inhibitory Concentration
Procedure: as §1

[9] = tested on: Streptococcus faecalis; conditions: Enterococcus faecalis; Culture Number 694; MHA, 35° C., 20 hours; read-out: Minimum Inhibitory Concentration
Procedure: as §1

[10] = tested on: Klebsiella pneumoniae; conditions: Culture Number 58, MHA, 35° C., 20 hours, read-out: Minimum Inhibitory Concentration
Procedure: as §1

[11] = tested on: Staphylococcus aureus; conditions: MHA, 35° C., 20 hours; for MIC: Staphylococcus aureus, Culture Number 9218, read-out: Minimum Inhibitory Concentration
Procedure: as §1

[12] = tested on: Escherichia coli; conditions: 20 h, 35° C., read-out: Minimum Inhibitory Concentration
Procedure: as §1

[13] = 20 h, Culture Number 231, MHA, 35° C., 20 hours, read-out: Minimum Inhibitory Concentration
[14] = 20 h, Culture Number 9191, MHA, 35° C., 20 hours, read-out: Minimum Inhibitory Concentration

MIC ([1]; pseudomonas aeruginosa Culture No. 231, given in text for Compound 18, read-out: M/C) [µg/mL] | MIC [1, 13] [µg/mL] | MIC [1, 14] [µg/mL] | MIC ([2]; Culture Number 9381, MHA) [µg/mL] | MIC ([2]; Culture Number 9382, MHA) [µg/mL] | MIC [3] [µg/mL] | MIC [4] [µg/mL] | MIC [5] [µg/mL] | MIC [6] [µg/mL] | MIC ([7]; Culture Number 9383, MHA) [µg/mL] | MIC ([7]; Culture Number 9384, MHA) [µg/mL] | MIC [8] [µg/mL] | MIC [9] [µg/mL] | MIC [10] [µg/mL] | MIC [11] [µg/mL] | MIC ([12]; Culture Number 9379, MHA) [µg/mL] | MIC ([12]; Culture Number 9380, MHA) [µg/mL] | MIC ([12]; Culture Number 9451, MHA) [µg/mL] | SMILES | Minimum Inhibitory Concentration ([11]; Culture Number 3665) [µg/mL] | Minimum Inhibitory Concentration ([11]; Culture Number 6685) [µg/mL]
8 (≈ 11.2 µM) |  |  |  |  |  |  |  |  |  |  |  |  |  |  |  |  |  | CC(C)(O/N=C(\C(=O)N[C@H]1CN(C(=O)NS(=O)(=O)N2CCN(NC(=O)c3cc(=O)c(C(N)=O)c[nH]3)C2=O)C1=O)c1csc(N)n1)C(=O)O [Compound 18] |  | 
 | 0.5 | 1 | 64 | 0.5 | 0.5 | 0.06 | 64 | 0.25 | 4 | 0.25 | 4 | > 128 | 0.5 | > 128 | 0.25 | 0.125 | 0.125 | CC(C)(O/N=C(\C(=O)N[C@H]1CN(C(=O)NS(=O)(=O)N2CCN(NC(=O)c3cc(=O)c(C(=O)O)c[nH]3)C2=O)C1=O)c1csc(N)n1)C(=O)O [Compound 14, (3S)-3-[2-(2-Amino-4-thiazolyl)-Z-(2)-carboxyisopropyloxyimino)acetamido]-1-[(3-carboxy-4-pyridon-6-yl)-carbonylamino-1-(2-imidazolidone-3-yl)sulfonylaminocarbonyl]-2-azetidinone trisodium salt] | > 128 | > 128
 | 4 (≈ 5.5 µM) | 4 (≈ 5.5 µM) | 64 (≈ 88 µM) | 2 (≈ 2.75 µM) | 2 (≈ 2.75 µM) | 0.125 (≈ 0.172 µM) | 64 (≈ 88 µM) | 0.25 (≈ 0.344 µM) | 4 (≈ 5.5 µM) | 0.5 (≈ 0.687 µM) | 4 (≈ 5.5 µM) | > 128 | 0.5 (≈ 0.687 µM) | > 128 | 0.5 (≈ 0.687 µM) | 0.5 (≈ 0.687 µM) | 0.25 (≈ 0.344 µM) | CC(C)(O/N=C(\C(=O)N[C@H]1CN(C(=O)NS(=O)(=O)N2CCN(NC(=O)c3cc(=O)c(C(=O)NO)c[nH]3)C2=O)C1=O)c1csc(N)n1)C(=O)O [Compound 17, (3S)-3-[2-(2-Amino-4-thiazolyl)-Z-(2)-(carboxyisopropyloxyamino)acetamido]-1-[(3-hydroxyaminocarbonyl-4-pyridon-6-yl)carbonylamino-1-(2-imidazolidone-3-yl)sulfonylaminocarbonyl]-2-azetidinone] | > 128 | > 128
